From patent US9034857B2 (Health Research, Inc., priority 2010, dated 2015)
“Also recorded” adds a separate entry of the source.

The molecules below were run on intracellular O2- in stationary phase budding yeast cells (assay: High throughput flow cytometry DHE screen for reduction of superoxide in stationary phase budding yeast). Conditions: not given.
Type: cell-based, S. cerevisiae

Row | SMILES | decrease in superoxide signals (control compound) | dose dependency in re-screening (reduction of superoxide, DHE)
1 | Nc1nc[nH]n1 [3-aminotriazol, reference compound] | more robust and reproducible decrease in superoxide signals | –
2 | CC(C)(C)n1nc(-c2ccc(Cl)cc2)c2c(N)ncnc21 [MLS000326622, 1-tert-butyl-3-(4-chlorophenyl)pyrazolo[3,4-d]pyrimidin-4-amine] | – | identified by dose dependency; also recorded: exhibited dose dependency
3 | O=c1cccc2[nH]c3ccccc3nc1-2 [MLS000737174, 5H-phenazin-1-one] | – | identified by dose dependency; also recorded: exhibited dose dependency
4 | Nc1cc2nc3ccccc3nc2cc1N [MLS001044416, phenazine-2,3-diamine] | – | identified by dose dependency; also recorded: exhibited dose dependency
5 | CNc1ccc2nc3ccccc3[n+](C)c2c1.[O-][Cl+3]([O-])([O-])[O-] [MLS001164912, N,10-dimethylphenazin-10-ium-2-amine perchlorate] | – | identified by dose dependency; also recorded: exhibited dose dependency
6 | C=C1[C@@H](O)[C@@H]2O[C@]3(CC[C@H](/C=C/[C@@H](C)[C@@H]4CC(C)=C[C@@]5(O[C@H](C[C@@](C)(O)C(=O)O)CC[C@H]5O)O4)O3)CC[C@H]2O[C@@H]1[C@@H](O)C[C@H](C)[C@H]1O[C@@]2(CCCCO2)CC[C@H]1C [MLS002320508, (2R)-3-[(4S,10S)-4-[(E)-4-[(2S,2′R,4aS,6R,8aR)-4-hydroxy-2-[1-hydroxy-3-[(10S)-9-methyl-5,11-dioxaspiro[5.5]undecan-10-yl]butyl]-3-methylidenespiro[4a,7,8,8a-tetrahydro-4H-pyran[3,2-b]pyran-6,5′-oxolane]-2′-yl]but-3-en-2-yl]-7-hydroxy-2-methyl-5,11-dioxaspiro[5.5]undec-1-en-10-yl]-2-hydroxy-2-methylpropanoic acid] | – | identified by dose dependency; also recorded: exhibited dose dependency
7 | C[C@]12CCC3C(CC[C@H]4C[C@@H](O)CC[C@]34C)[C@H]1CC[C@H]2O (stereo partly drawn) [MLS002554375, (3S,5S,10S,13S,14R,17R)-10,13-dimethyl-2,3,4,5,6,7,8,9,11,12,14,15,16,17-tetradecahydro-1H-cyclopenta[a]phenanthrene-3,17-diol] | – | identified by dose dependency; also recorded: exhibited dose dependency
8 | C[C@]12CCC3C(CC[C@H]4C[C@H](O)CC[C@]34C)C1CCC2=O (stereo partly drawn) [MLS002554454, (3R,5S,10S,13S)-3-hydroxy-10,13-dimethyl-1,2,3,4,5,6,7,8,9,11,12,14,15,16-tetradecahydrocyclopenta[a]phenanthren-17-one] | – | identified by dose dependency; also recorded: exhibited dose dependency

Same assay, conditions: dose response assays from 0.004 uM to 30 uM; 7 day incubation, 7% glucose

Row | SMILES | dose dependency in re-screening (reduction of superoxide, DHE)
9 | COc1ccc2c(c1)c1nnc(SC)nc1n2C [MLS000033501, 8-methoxy-5-methyl-3-methylsulfanyl-[1,2,4]triazino[5,6-b]indole] | identified by dose dependency; also recorded: exhibited dose dependency
10 | CC(C)(C)Nc1ncnc2c1cnn2-c1ccccc1 [MLS000100785, N-tert-butyl-1-phenylpyrazolo[3,4-d]pyrimidin-4-amine] | identified by dose dependency; also recorded: exhibited dose dependency
11 | O=C(/C=C/c1ccccc1)NC(=S)NNC(=O)Cc1cccs1 [MLS000121367, (E)-3-phenyl-N—[[(2-thiophen-2-ylacetyl)amino]carbamothioyl]prop-2-enamide] | identified by dose dependency; also recorded: exhibited dose dependency
12 | CC(C)(C)n1nc(-c2ccc(F)cc2)c2c(N)ncnc21 [MLS000326584, 1-tert-butyl-3-(4-fluorophenyl)pyrazolo[3,4-d]pyrimidin-4-amine] | identified by dose dependency; also recorded: exhibited dose dependency
13 | O=C(Nc1ccc2nc3ccccc3nc2c1)c1ccccc1 [MLS000418506, N-phenazin-2-ylbenzamide] | identified by dose dependency; also recorded: exhibited dose dependency
14 | COc1ccc2c3c(cccc13)N(C)N=C2C [MLS000554700, 6-Methoxy-1,3-dimethyl-1H-benzo[de]cinnoline] | identified by dose dependency; also recorded: exhibited dose dependency
15 | c1ccc2nc3ccccc3nc2c1 [MLS000584128, phenazine] | identified by dose dependency; also recorded: exhibited dose dependency
16 | CCN(CC)C(=O)c1ccc2nc3ccccc3nc2c1 [MLS000595212, N,N-diethylphenazine-2-carboxamide] | identified by dose dependency; also recorded: exhibited dose dependency
17 | C=CCSc1nnc(-c2ccc([N+](=O)[O-])cc2)o1 [MLS000662516, 2-(4-nitrophenyl)-5-prop-2-enylsulfanyl-1,3,4-oxadiazole] | identified by dose dependency; also recorded: exhibited dose dependency
18 | C#CCSc1nnc(-c2ccc([N+](=O)[O-])cc2)o1 [MLS000663774, 2-(4-nitrophenyl)-5-prop-2-ynylsulfanyl-1,3,4-oxadiazole] | identified by dose dependency; also recorded: exhibited dose dependency
19 | COc1cccc2nc3cc(C)c(C)cc3nc12 [MLS000756830, 1-methoxy-7,8-dimethylphenazine] | identified by dose dependency; also recorded: exhibited dose dependency
20 | COc1ccc2nc3ccccc3nc2c1 [MLS000768124, 2-methoxyphenazine] | identified by dose dependency; also recorded: exhibited dose dependency
21 | OCC[n+]1c2ccccc2nc2ccc(N3CCOCC3)cc21 [MLS000768911, 2-(3-morpholin-4-ylphenazin-5-ium-5-yl)ethanolperchlorate] | identified by dose dependency; also recorded: exhibited dose dependency
22 | CCC(Nc1ccccc1O)=C1C(=O)CC(c2ccccc2)CC1=O (centres unmarked) [MLS000779260, 2-[1-(2-hydroxyanilino)propylidene]-5-phenylcyclohexane-1,3-dione] | identified by dose dependency; also recorded: exhibited dose dependency
23 | CSc1nnc(-c2ccc([N+](=O)[O-])cc2)o1 [MLS000855890, 2-methylsulfanyl-5-(4-nitrophenyl)-1,3,4-oxadiazole] | identified by dose dependency; also recorded: exhibited dose dependency
24 | COC(=O)c1cccc2nc3c(C(C)O)cccc3nc12 (centres unmarked) [MLS000863638, methyl 6-(1-hydroxyethyl)phenazine-1-carboxylate] | identified by dose dependency; also recorded: exhibited dose dependency
25 | O=C(c1cccc2nc3ccccc3nc12)N1CCOCC1 [MLS001044337, morpholin-4-yl(phenazin-1-yl)methanone] | identified by dose dependency; also recorded: exhibited dose dependency
26 | COc1ccc2nc3ccccc3nc2c1N [MLS001044341, 2-methoxyphenazin-1-amine] | identified by dose dependency; also recorded: exhibited dose dependency
27 | CNC(=O)c1cccc2nc3ccccc3nc12 [MLS001044346, N-methylphenazine-1-carboxamide] | identified by dose dependency; also recorded: exhibited dose dependency
28 | CC(=O)Nc1ccc2nc3ccccc3nc2c1 [MLS001044354, N-phenazin-2-ylacetamide] | identified by dose dependency; also recorded: exhibited dose dependency
29 | COc1ccc2nc3ccccc3nc2c1 [MLS001048992, 2-methoxyphenazine] | identified by dose dependency; also recorded: exhibited dose dependency
30 | FC(F)(F)c1nc2cc3nc4ccccc4nc3cc2[nH]1 [MLS001049309, 2-(trifluoromethyl)-1H-imidazo[4,5-b]phenazine] | identified by dose dependency; also recorded: exhibited dose dependency
31 | CC(C)OC(=O)c1ccc2nc3ccccc3nc2c1 [MLS001173415, propan-2-yl phenazine-2-carboxylate] | identified by dose dependency; also recorded: exhibited dose dependency
32 | CC(=NNc1ncnc2sc(C)c(C)c12)c1ccccn1 [MLS001176565, 5,6-dimethyl-N-(1-pyridin-2-ylethylideneamino)thieno[2,3-d]pyrimidin-4-amine] | identified by dose dependency; also recorded: exhibited dose dependency
33 | O=c1ccc2[n+]([O-])c3ccccc3n(O)c-2c1 [MLS001208198, 10-hydroxy-5-oxidophenazin-5-ium-2-one] | identified by dose dependency; also recorded: exhibited dose dependency
34 | C[C@]12CCC3C(CC[C@H]4C[C@H](O)CC[C@]34C)C1C[C@@H](CCCCl)[C@@H]2O (stereo partly drawn) [MLS002554453, (3R,5S,10S,13S,16R,17S)-16-(3-chloropropyl)-10,13-dimethyl-2,3,4,5,6,7,8,9,11,12,14,15,16,17-tetradecahydro-1H-cyclopenta[a]phenanthrene-3,17-diol] | identified by dose dependency; also recorded: exhibited dose dependency
35 | COc1ccc2nc3ccccc3[n+]([O-])c2c1 [MLS002638803, 2-methoxy-10-oxidophenazin-10-ium] | identified by dose dependency; also recorded: exhibited dose dependency
